We go through nine compounds from ChEMBL document CHEMBL1142758, “Neuroprotective effects of naturally occurring biflavonoids” (2005).

Common to all, as to format: functional
Assay [1] is described as follows: Protective effect of compound on Ab25 35-induced cell death in SH-SY5Y cells (concentration = 10 uM).
Assay [2] is described as follows: Protective effect of compound on SNP-induced cell death in SH-SY5Y cells (concentration = 0.4 uM).
Assay [3] in a line: Protective effect of compound on Ab25 35-induced cell death in SH-SY5Y cells (concentration = 4 uM).
Assay [4] is described as follows: Protective effect of compound on Ab25 35-induced cell death in SH-SY5Y cells (concentration = 0.2 uM).
Assay [5] is described as follows: Protective effect of compound on SNP-induced cell death in SH-SY5Y cells (concentration = 10 uM).
Assay [6] in a line: Protective effect of compound on hydrogen peroxide-induced cell death in SH-SY5Y cells (concentration = 0.4 uM).
Assay [7] is described as follows: Protective effect of compound on hydrogen peroxide-induced cell death in SH-SY5Y cells (concentration = 10 uM).
Assay [8] can be described thus: Protective effect of compound on hydrogen peroxide-induced cell death in SH-SY5Y cells (concentration = 2 uM).
Assay [9] in a line: Protective effect of compound on SNP-induced cell death in SH-SY5Y cells (concentration = 2 uM).
A short description of assay [10]: Protective effect of compound on compounds on SNP-induced cell death in SH-SY5Y cells (concentration = 0.4 uM).
The nature of assay [11]: Protective effect of test compound on SNP-induced cell death in SH-SY5Y cells (concentration = 2 uM).
Assay [12] is described as follows: Protective effect of test compound on SNP-induced cell death in SH-SY5Y cells (concentration = 10 uM).
Assay [13] in a line: Protective effect of test compound on SNP-induced cell death in SH-SY5Y cells (concentration = 0.4 uM).
Assay [14] is described as follows: Protective effect of test compound on Ab25 35-induced cell death in SH-SY5Y cells (concentration = 4 uM).
Assay [15] in a line: Protective effect of test compound on hydrogen peroxide-induced cell death in SH-SY5Y cells (concentration = 2 uM).
Assay [16] is described as follows: Protective effect of test compound on Ab25 35-induced cell death in SH-SY5Y cells (concentration = 10 uM).
Assay [17] in a line: Protective effect of test compound on Ab25 35-induced cell death in SH-SY5Y cells (concentration = 0.2 uM).
Assay [18] in a line: Protective effects of test compounds on Ab25 35-induced cell death in SH-SY5Y cells (concentration = 10 uM).

On to `COC1=CC2OC(c3ccc(O)cc3)=CC(=O)C2C(O)=C1Oc1ccc(-c2cc(=O)c3c(O)cc(O)cc3o2)cc1` (stereo unspecified), for which the Inhibition in [1] is -0.2%; in [2], -16%; in assay [3] it was 11%; in [4], 18%; in [5] it was -25%; in [6] it was -3.5%. Further, the results for the Inhibition in assay [7], in assay [8] and in [9] were 68.1%, 23.9% and -14.8%, respectively.

For `COc1cc(O)c2c(=O)cc(-c3ccc(OC)c(C4=C(O)C=C(O)C5C(=O)C=C(c6ccc(O)cc6)OC45)c3)oc2c1` (stereo unspecified), the Inhibition in [1] was 5.6%; in [3], 43.6%; in assay [4] it was 29.5 µM; in [5], 32.4%; in assay [6], 11.3%; in assay [7] it was 35.7%. Besides, the figures for the Inhibition in assay [10], in [8] and in assay [9] were -0.1 µM, 12.2% and 7.8%, respectively.

With `COc1ccc(-c2cc(=O)c3c(O)cc(O)cc3o2)cc1Oc1ccc(-c2cc(=O)c3c(O)cc(O)cc3o2)cc1`, the Inhibition came to 14.8% in [1]; 2.9% in assay [2]; 0.9% in [3]; 13% in assay [4]; 1.6% in assay [5]; 1.8% in assay [6]. In addition, the figures for the Inhibition in [7], in assay [8] and in assay [9] were 12.1%, -1.2% and 0.1%, respectively.

Turning to `O=C1C=C(c2ccc(O)cc2)OC2C=C(O)C(Oc3ccc(-c4cc(=O)c5c(O)cc(O)cc5o4)cc3)=C(O)C12` (stereo unspecified), the Inhibition in [1] is -10%; in assay [2] it was 2.5%; in assay [3], -19.9%; in assay [4], 8.7%; in assay [5] it was 15%; in [6], 7.8%. The Inhibition in assay [7] was 56%; in assay [8] it was 19.8%; in assay [9], -9.4%.

Consider `COc1ccc(C2=CC(=O)C3C(O)=CC(O)=C(c4cc(-c5cc(=O)c6c(O)cc(O)cc6o5)ccc4OC)C3O2)cc1` (stereo unspecified), for which the Inhibition in [1] came to 43.8 µM; in [2], 6.9%; in assay [3], 59.1%; in [4], 19.7%; in assay [5], 23.5%; in assay [6], 40.1%. For the same compound, the Inhibition in [7] came out at 55.1%; in assay [8] it was 28.7%; in assay [9], 10.5%.

For the compound `COc1ccc(-c2cc(=O)c3c(O)cc(O)cc3o2)cc1C1=C(O)C=C(O)C2C(=O)C=C(c3ccc(O)cc3)OC12` (stereo unspecified), the Inhibition is -7.5% in assay [1]; 2.5% in assay [2]; 1.9% in assay [3]; 9.8% in assay [4]; 11% in [5]; 25.3% in assay [6]. For the same compound, the Inhibition in assay [7] came out at 62.9%; in assay [8], 30.4%; in assay [9] it was 4.8%.

Regarding `O=C1C=C(c2ccc(O)cc2)OC2C(c3cc(-c4cc(=O)c5c(O)cc(O)cc5o4)ccc3O)=C(O)C=C(O)C12` (stereo unspecified), the Inhibition stood at 16.4 µM in assay [11]; 40.5 µM in assay [12]; 5.2 µM in assay [13]; 25.4 µM in assay [14]; 39.9 µM in assay [15]; 27% in [6]. For the same compound, the Inhibition was 62% in assay [7], 31.8 µM in [16] and 3.6 µM in assay [17].

`COc1ccc(C2=CC(=O)C3C(O)=CC(O)=C(c4cc(-c5cc(=O)c6c(O)cc(OC)cc6o5)ccc4OC)C3O2)cc1` (stereo unspecified): the Inhibition in assay [2] was found to be 28.5%; in assay [3], 38.1%; in assay [4], 27.1%; in assay [5] it was 4.6%; in assay [6], 39.5%; in [7] it was 69.5%. For the same compound, the Inhibition in [18] amounted to 35.1 µM; in assay [8], 52.1%; in assay [9] it was 8.1%.

In the case of `O=c1cc(-c2ccc(Oc3cc(-c4cc(=O)c5c(O)cc(O)cc5o4)ccc3O)cc2)oc2cc(O)cc(O)c12` [OCHNAFLAVONE], the Inhibition in [1] was -1.9%; in assay [2] it was 10%; in assay [3] it was -32.1%; in [4], -12.7%; in assay [5] it was 9.3%; in assay [6], -3.6%. The Inhibition in assay [7] is -32.7%; in [8], -12.1%; in [9] it was 7.7%.
